Consider 18 molecules from patent US20240309016A1, “MACROCYCLIC HETEROCYCLE COMPOUNDS AND USE THEREOF” (TAKEDA PHARMACEUTICAL COMPANY LIMITED, priority 2023, published 2024).

Structures are written as SMILES.

In the assay the target is T1, human OX2 receptor (Homo sapiens, UniProt O43614).
T1 construct: expressed in transfected cells
T1 sequence (O43614 1-444): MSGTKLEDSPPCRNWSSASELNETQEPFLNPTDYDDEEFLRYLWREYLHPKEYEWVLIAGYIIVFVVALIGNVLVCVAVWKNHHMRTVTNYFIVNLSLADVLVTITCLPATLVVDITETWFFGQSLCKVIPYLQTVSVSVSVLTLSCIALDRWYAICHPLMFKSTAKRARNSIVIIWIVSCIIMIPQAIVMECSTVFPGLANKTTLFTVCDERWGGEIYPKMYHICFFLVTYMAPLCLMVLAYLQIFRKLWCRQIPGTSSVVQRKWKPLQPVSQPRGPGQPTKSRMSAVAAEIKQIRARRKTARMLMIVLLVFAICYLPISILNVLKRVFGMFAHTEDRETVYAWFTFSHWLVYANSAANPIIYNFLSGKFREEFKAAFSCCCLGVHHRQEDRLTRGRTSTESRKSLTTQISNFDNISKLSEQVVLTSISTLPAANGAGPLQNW
In words: Measurement of orexin type 2 receptor agonist activity (Experimental Example 2; Fluo-4 AM calcium fluorescence, FDSS μCELL). The assay is classed as cell-based. Conditions: compound at 3 μM; CHO cells expressing human OX2 receptor; DMSO = 0%, 10 nM orexin A (human) = 100%. The method, then:
In order to obtain cell clones that stably express human orexin type 2 receptor, human orexin type 2 (residues 1-444, NCBI Reference Sequence: AK314279) was constructed in a pcDNA3.1 (+) vector (Invitrogen) to express in mammalian cells. This plasmid DNA was transfected into CHO-K1 cells by electroporation, and stable clones were obtained by limiting dilution using resistance to G418 as a selection marker.
CHO cells in which human OX2 receptor was forcibly expressed were seeded at 10,000 cells/well into a 384-well black transparent bottom plate (BD falcon), and were incubated at 37° C., 5% CO2 for 1 day after incubation at room temperature for 30 minutes. After removing the cell plate medium, assay buffer containing calcium indicator A (HBSS (Thermo Fisher Scientific), 20 mM HEPES (Thermo Fisher Scientific), 0.1% BSA (Sigma-Aldrich), 2.5 μg/mL Fluo-4 AM (Dojin Kagaku), 0.08% Pluronic F127 (Dojin Kagaku), 1.25 mM probenecid (Dojin Kagaku)) was added at 30 μL/well. After incubation in a 5% CO2 incubator at 37° C. for 30 minutes, it was incubated at room temperature for another 30 minutes. Add 10 μL/well of the test compound diluted with assay buffer B (HBSS, 20 mM HEPES, 0.1% BSA), and use FDSS μCELL (Hamamatsu Photonics) to measure the fluorescence value every 1 second for 1 minute, and then every 2 seconds for 1 minute. It was measured for 1 minute and 40 seconds. The amount of fluorescence value when DMSO is added instead of the test compound is defined as 0%, and the amount of fluorescence value when orexin A (human) (Peptide Institute) with a final concentration of 10 nM is added is defined as 100%. The activity (%) of the test compound was calculated. Table 2-1, 2-2, 2-3, and 2-4 show the activity of each compound at a concentration of 3 μM.
As to `Cc1ccc2nc1Oc1cccc(c1)C[C@H]1[C@@H](NS(C)(=O)=O)CCN1C(=O)N(C)C2` [Example 40, N-[(15aS,16S)-2,7-dimethyl-1-oxo-2,3,15a,16,17,18-hexahydro-1H,15H-4,8-(azeno)-10,14-(metheno)pyrrolo[1,2-j][1,8,10]oxadiazacyclo-heptadecin-16-yl]methanesulfonamide], the “OX2R agonist activity (3 μM, %)” value came out at 103%.

As to `CS(=O)(=O)N[C@@H]1[C@@H]2Cc3cccc(c3F)Oc3nc(ccc3C(F)F)CNC(=O)N2CC1(F)F` [Example 41, N-[(15aS,16R)-7-(difluoromethyl)-17,17,20-trifluoro-1-oxo-2,3,15a,16,17,18-hexahydro-1H,15H-8,4-(azeno)-10,14-(metheno)pyrrolo[1,2-j][1,8,10]oxadiazacyclo-heptadecin-16-yl]methanesulfonamide], the “OX2R agonist activity (3 μM, %)” value is listed as 107%.

In the case of `CCS(=O)(=O)N[C@H]1[C@@H](F)CN2C(=O)NCc3ccc(C)c(n3)Oc3cccc(c3)C[C@@H]12` [Example 42, N-[(15aS,16R,17S)-17-fluoro-7-methyl-1-oxo-2,3,15a,16,17,18-hexahydro-1H,15H-4,8-(azeno)-14,10-(metheno)pyrrolo[1,2-j][1,8,10]oxadiazacyclo-heptadecin-16-yl]ethanesulfonamide], the “OX2R agonist activity (3 μM, %)” value was 101%.

For the molecule `Cc1ccc2nc1Oc1cccc(c1F)C[C@H]1[C@@H](NS(=O)(=O)C(F)F)C(F)(F)CN1C(=O)NC2` [Example 43, 1,1-difluoro-N-[(15aS,16R)-17,17,20-trifluoro-7-methyl-1-oxo-2,3,15a,16,17,18-hexahydro-1H,15H-4,8-(azeno)-10,14-(metheno)pyrrolo[1,2-j][1,8,10]oxadiazacyclo-heptadecin-16-yl]methanesulfonamide], the “OX2R agonist activity (3 μM, %)” value worked out at 101%.

As to `CS(=O)(=O)N[C@H]1[C@@H](F)CN2C(=O)NCc3cc(c(Cl)cn3)Oc3cccc(c3F)C[C@@H]12` [Example 44, N-[(15aS,16R,17S)-7-chloro-17,20-difluoro-1-oxo-2,3,15a,16,17,18-hexahydro-1H,15H-4,8:14,10-di(metheno)pyrrolo[1,2-j][1,5,8,10]oxatriazacyclo-heptadecin-16-yl]methanesulfonamide], the “OX2R agonist activity (3 μM, %)” value is given as 84%.

Consider `CCS(=O)(=O)N[C@@H]1[C@@H]2Cc3cccc(c3F)Oc3nc(ccc3C)OCC(=O)N2CC1(F)F` [Example 45, N-[(15aS,16R)-17,17,20-trifluoro-7-methyl-1-oxo-1,2,15a,16,17,18-hexahydro-15H-4,8-(azeno)-14,10-(metheno)pyrrolo[1,2-d][1,12,4]dioxazacyclo-heptadecin-16-yl]ethanesulfonamide], for which the “OX2R agonist activity (3 μM, %)” value amounted to 105%.

Consider `COCS(=O)(=O)N[C@@H]1[C@@H]2Cc3cccc(c3F)Oc3nc(ccc3C)CNC(=O)N2CC1(F)F` [Example 46, 1-methoxy-N-[(15aS,16R)-17,17,20-trifluoro-7-methyl-1-oxo-2,3,15a,16,17,18-hexahydro-1H,15H-4,8-(azeno)-14,10-(metheno)pyrrolo[1,2-j][1,8,10]oxadiazacyclo-heptadecin-16-yl]methanesulfonamide], for which the “OX2R agonist activity (3 μM, %)” value was found to be 99%.

As to `CCS(=O)(=O)N[C@H]1[C@@H](F)CN2C(=O)NCc3ccc(Cl)c(n3)Oc3cccc(c3)C[C@@H]12` [Example 47, N-[(15aS,16R,17S)-7-chloro-17-fluoro-1-oxo-2,3,15a,16,17,18-hexahydro-1H,15H-4,8-(azeno)-14,10-(metheno)pyrrolo[1,2-j][1,8,10]oxadiazacyclo-heptadecin-16-yl]ethanesulfonamide], the “OX2R agonist activity (3 μM, %)” value stood at 92%.

On to `CCS(=O)(=O)N[C@@H]1[C@@H]2Cc3cccc(c3F)Oc3nc(ccc3C)N(C)CC(=O)N2CC1(F)F` [Example 48, N-[(15aS,16R)-17,17,20-trifluoro-3,7-dimethyl-1-oxo-2,3,15a,16,17,18-hexahydro-1H,15H-4,8-(azeno)-14,10-(metheno)pyrrolo[1,2-j][1,7,10]oxadiazacyclo-heptadecin-16-yl]ethanesulfonamide], for which the “OX2R agonist activity (3 μM, %)” value is given as 67%.

As to `CCS(=O)(=O)N[C@@H]1[C@@H]2Cc3cccc(c3F)Oc3nc(ccc3C)C(C)NC(=O)N2CC1(F)F` (stereo partly drawn) [Example 49, N-[(15aS,16R)-17,17,20-trifluoro-3,7-dimethyl-1-oxo-2,3,15a,16,17,18-hexahydro-1H,15H-4,8-(azeno)-14,10-(metheno)pyrrolo[1,2-j][1,8,10]oxadiazacyclo-heptadecin-16-yl]ethanesulfonamide (optical isomer)], the “OX2R agonist activity (3 μM, %)” value is reported as 97%.

`CCS(=O)(=O)N[C@@H]1[C@@H]2Cc3cccc(c3F)Oc3ccc(F)c(n3)CNC(=O)N2CC1(F)F` [Example 50, N-[(15aS,16R)-5,17,17,20-tetrafluoro-1-oxo-2,3,15a,16,17,18-hexahydro-1H,15H-4,8-(azeno)-14,10-(metheno)pyrrolo[1,2-j][1,8,10]oxadiazacyclo-heptadecin-16-yl]ethanesulfonamide]: the “OX2R agonist activity (3 μM, %)” value is listed as 88%.

For the molecule `Cc1cnc2nc1Oc1cccc(c1F)C[C@H]1[C@@H](NS(C)(=O)=O)C(F)(F)CN1C(=O)C1CCN21` (stereo partly drawn) [Example 52, N-[(15aS,16R)-17,17,21-trifluoro-7-methyl-20-oxo-1,2,15a,16,17,18,20,20a-octahydro-15H-4,8-(azeno)-10,14-(metheno)azeto[1,2-g]pyrrolo[1,2-j][1,5,7,10]oxatriazacyclo-heptadecin-16-yl]methanesulfonamide (optical isomer)], the “OX2R agonist activity (3 μM, %)” value is reported as 93%.

Turning to `CCS(=O)(=O)N[C@H]1[C@@H](F)CN2C(=O)NCc3ncc(C)c(n3)Oc3cccc(c3F)C[C@@H]12` [Example 55, N-[(15aS,16R,17S)-17,20-difluoro-7-methyl-1-oxo-2,3,15a,16,17,18-hexahydro-1H,15H-4,8-(azeno)-10,14-(metheno)pyrrolo[1,2-j][1,5,8,10]oxatriazacyclo-heptadecin-16-yl]ethanesulfonamide], the “OX2R agonist activity (3 μM, %)” value is given as 107%.

`CN1Cc2ccc(Cl)c(n2)Oc2cccc(c2F)C[C@H]2[C@@H](NS(C)(=O)=O)C(F)(F)CN2C1=O` [Example 57, N-[(15aS,16R)-7-chloro-17,17,20-trifluoro-2-methyl-1-oxo-2,3,15a,16,17,18-hexahydro-1H,15H-4,8-(azeno)-14,10-(metheno)pyrrolo[1,2-j][1,8,10]oxadiazacyclo-heptadecin-16-yl]methanesulfonamide]: the “OX2R agonist activity (3 μM, %)” value was determined as 108%.

Turning to `O=C1NCc2nc(c(Cl)cc2F)Oc2cccc(c2F)C[C@H]2[C@@H](NS(=O)(=O)C3CC3)C(F)(F)CN12` [Example 58, N-[(15aS,16R)-7-chloro-5,17,17,20-tetrafluoro-1-oxo-2,3,15a,16,17,18-hexahydro-1H,15H-4,8-(azeno)-14,10-(metheno)pyrrolo[1,2-j][1,8,10]oxadiazacyclo-heptadecin-16-yl]cyclopropanesulfonamide], the “OX2R agonist activity (3 μM, %)” value is recorded as 106%.

Turning to `Cc1cnc2nc1Oc1cccc(c1F)C[C@H]1[C@@H](NS(C)(=O)=O)C(F)(F)CN1C(=O)[C@@H]1CCCN21` [Example 59, N-[(16aS,17R,21aS)-18,18,22-trifluoro-8-methyl-21-oxo-2,3,16a,17,18,19,21,21a-octahydro-1H,16H-5,9-(azeno)-11,15-(metheno)dipyrrolo[1,2-g:1′,2′-j][1,5,7,10]oxatriazacyclo-heptadecin-17-yl]methanesulfonamide], the “OX2R agonist activity (3 μM, %)” value stood at 106%.

For the molecule `CS(=O)(=O)N[C@@H]1[C@@H]2Cc3cccc(c3F)Oc3nc(ccc3Cl)CN(CC(F)F)C(=O)N2CC1(F)F` [Example 60, N-[(15aS,16R)-7-chloro-2-(2,2-difluoroethyl)-17,17,20-trifluoro-1-oxo-2,3,15a,16,17,18-hexahydro-1H,15H-4,8-(azeno)-14,10-(metheno)pyrrolo[1,2-j][1,8,10]oxadiazacyclo-heptadecin-16-yl]methanesulfonamide], the “OX2R agonist activity (3 μM, %)” value amounted to 104%.

For `CCS(=O)(=O)N[C@@H]1[C@@H]2Cc3cccc(c3F)Oc3nc(cnc3C)CCC(=O)N2CC1(F)F` [Example 61, N-[(1R,19aS)-2,2,20-trifluoro-11-methyl-5-oxo-2,3,6,7,19,19a-hexahydro-1H,5H-8,12-(azeno)-18,14-(metheno)pyrrolo[1,2-j][1,4,10]oxadiazacyclo-heptadecin-1-yl]ethanesulfonamide], the “OX2R agonist activity (3 μM, %)” value is listed as 106%.
